Results: patent US7897588B2, “Agents and methods for enhancing bone formation” (The Regents of the University of California, priority 2003, dated 2011)

Tests used:
[1] = system: M2-10B4 mouse marrow stromal cell line; assay: Matrix mineralization in M2 cells (von Kossa staining, 45Ca incorporation assay); format: cell-based
Protocol: Cells: M2-10B4 mouse marrow stromal cell line obtained from American Type Culture Collection (ATCC, Rockville, Md., U.S.A.) was derived from bone marrow stromal cells of a (C57BL/6J×C3H/HeJ) F1 mouse, and support human and murine myelopoiesis in long-term cultures (as per ATCC) and have the ability to differentiate into osteoblastic and adipocytic cells. Unless specified, these cells were cultured in RPMI 1640 containing 10% heat-inactivated FBS, and supplemented with 1 mM sodium pyruvate, 100 U/ml penicillin, and 100 […] (all from Irvine Scientific).
(§1) Von Kossa and oil red O staining—Matrix mineralization in cell monolayers was detected by silver nitrate staining as previously described. Oil red O staining for detection of adipocytes was performed as previously described.
^45Ca incorporation assay—Matrix mineralization in cell monolayers was quantified using the ^45Ca incorporation assay as previously described.
M2 cells at confluence were treated in osteogenic medium with control vehicle or 5 μM oxysterols, alone or in combination as indicated. After 14 days, mineralization was identified by a von Kossa staining, which appears black. FIG. 3C is a depiction of von Kossa staining of M2 cells exposed to various conditions.
M2 cells were treated with control vehicle (C) or a combination of 22R and 20S oxysterols at increasing concentrations. After 14 days, matrix mineralization in cultures was quantified using a ^45Ca incorporation assay. […] FIG. 3D is a bar graph depicting the effect of a combination of oxysterols at various doses on calcium incorporation in M2 cells.
Next, a combination of 22R and 20S oxysterols (RS, 2.5 μM each) were added in the presence or absence of SC as indicated. After 3 days, ALP activity was measured as described earlier. […] (B) M2 cells were treated as described in (A) and after 10 days matrix mineralization in cultures was quantified by a ^45Ca incorporation assay as described earlier. Results from a representative of three experiments are shown, reported as the mean±SD of quadruplicate determinations, normalized to protein concentration. (C) M2 cells were pretreated with 20 μM SC for 4 hours, followed by the addition of RS in the presence or absence of SC as described above. After 8 days, total RNA was isolated and analyzed for osteocalcin (Osc) and 18S rRNA expression by Northern blotting as previously described. Data from densitometric analysis of the Northern blot is shown in (D) as the average of duplicate samples, normalized to 18S rRNA. (E) M2 cells at confluence were pretreated for 2 hours with control vehicle (C), or PLA2 inhibitors ACA (25 μM) and AACOCF3 (AAC, 20 μM), in osteogenic medium. Next, a combination of 22R and 20S oxysterols (RS, 2.5 μM) was added in the presence or absence of the inhibitors as indicated. After 3 days, ALP activity was measured as previously described. Data from a representative of three experiments are shown, reported as the mean±SD of quadruplicate determinations, normalized to protein concentration (p<0.01 for RS vs. RS+ACA and RS+AAC). (F) M2 cells were treated as described in (E). After 10 days, matrix minerliazation in cultures was quantified using a ^45Ca incorporation assay as previously described. Results from a representative of three experiments are shown, reported as the mean of quadruplicate determinations±SD, normalized to protein concentration (p<0.01 for RS vs. RS+ACA and RS+AAC).
(A) M2 cells at confluence were pretreated for four hours with RPMI containing 1% FBS, followed by treatment with control vehicle or 5 μM 20S oxysterol for 1, 4, or 8 hours. Next total cell extracts were prepared and analyzed for levels of native or phosphorylated ERK (pERK) using specific antibodies as previously described.

[2] = system: M2 cells; assay: Adipogenesis of troglitazone-treated M2 cells (oil Red O staining, adipocyte count); format: cell-based, mouse; conditions: M2 cells treated with Tro 10 μM, oxysterols 10 μM, 10 days
Protocol: as §1
Test 1: M2 cells at 90% confluence were treated with vehicle (C), PPAR-γ activator, troglitazone 10 uM (Tro), alone or in combination with 10 μM oxysterols 20S-, 22R-, or 25S-hydroxycholesterol. After 8 days, adipocytes were identified by oil Red 0 staining and quantified by counting under a phase contrast microscope. FIG. 6A is a bar graph depicting the effect of oxysterols on reducing adipogenesis of MSC.
Test 2: (A) M2 cells at confluence were treated in RPMI containing 10% FBS with control vehicle or 10 μM troglitazone (Tro) in the absence or presence of 10 μM 20S or 22S oxysterols. After 10 days, adipocytes were visualized by oil Red O staining and quantified by light microscopy, shown in (B). Data from a representative of four experiments are shown, reported as the mean SD of quadruplicate determinations (p<0.001 for Tro vs. Tro+20S and Tro+22S). (C) M2 cells were treated at confluence with 10 μM Tro, alone or in combination with 10 μM 20S oxysterol. After 10 days, total RNA was isolated and analyzed for lipoprotein lipase (LPL), adipocyte P2 gene (aP2) or 18S rRNA expression by Northern blotting as described (Ref). Data from densitometric analysis of the Northern blot is shown in (D) as the average of duplicate samples, normalized to 18S rRNA.

[3] = system: ERK1 and ERK2; assay: Western blot for phosphorylated ERK in M2 cells; format: cell-based, mouse; conditions: 5 μM 20S, 1, 4 or 8 hours
Protocol: Western blot analysis—After treatments, cells were lysed in lysis buffer, protein concentrations determined using the Bio-Rad protein assay (Hercules, Calif. U.S.A.), and SDS-PAGE performed as previously described. Probing for native and phosphorylated ERKs was performed as previously reported.
(A) M2 cells at confluence were pretreated for four hours with RPMI containing 1% FBS, followed by treatment with control vehicle or 5 μM 20S oxysterol for 1, 4, or 8 hours. Next total cell extracts were prepared and analyzed for levels of native or phosphorylated ERK (pERK) using specific antibodies as previously described. Data from a representative of four experiments are shown, each treatment shown in duplicate samples. (B) M2 cells at confluence were pretreated for 2 hours with control vehicle (C) or 20 μM PD98059 (PD) in osteogenic medium as previously described. Next, a combination of 22R and 20S oxysterols (RS, 5 μM each) were added to appropriate wells as indicated. After 10 days of incubation, matrix mineralization was quantified by the ^45Ca incorporation assay as previously described. Data from a representative of three experiments are reported as the mean±SD of quadruplicate determinations, normalized to protein concentration (p<0.01 for RS vs. RS+PD). […] After 10 days, adipocytes were visualized by oil Red O staining and quantified by light microscopy as previously described. […]

[4] = individual oxysterols 0.5-10 μM or combinations, up to 14 days

CC(C)CCC[C@](C)(O)[C@H]1CC[C@H]2[C@@H]3CC=C4C[C@@H](O)CC[C@]4(C)[C@H]3CC[C@@]21C [20S, 20(S)-hydroxycholesterol]
induction of mineralization [1, 4]: unable to induce | inhibition of adipogenesis [2]: inhibited adipogenesis | activation of ERK1 and ERK2 [3]: sustained activation

CC(C)CC[C@@H](O)[C@@H](C)[C@H]1CC[C@H]2[C@@H]3CC=C4C[C@@H](O)CC[C@]4(C)[C@H]3CC[C@]12C [22R, 22(R)-hydroxycholesterol]
induction of mineralization [1, 4]: unable to induce | inhibition of adipogenesis [2]: inhibited adipogenesis

CC(C)CC[C@H](O)[C@@H](C)[C@H]1CC[C@H]2[C@@H]3CC=C4C[C@@H](O)CC[C@]4(C)[C@H]3CC[C@]12C [22S, 22(S)-hydroxycholesterol]
induction of mineralization [1, 4]: unable to induce | inhibition of adipogenesis [2]: inhibited adipogenesis

O=S(=O)(c1ccccc1)N(CC(F)(F)F)c1ccc(C(O)(C(F)(F)F)C(F)(F)F)cc1 [TO, TO-901317]
induction of mineralization ([1]; TO treatment, after 10 days): did not induce
